Data taken from the NIST ThermoML archive (doi:10.1016/j.jct.2011.05.033).

How the values were obtained:
[1] = excess molar enthalpy (molar enthalpy of mixing); xn = mol fraction of the nth substance listed; settings: 298.15 K, 101 kPa, Liquid, Isothermal Titration Calorimeter
[2] = xn = mol fraction of the nth substance listed; settings: 298.15 K, 101 kPa, Liquid, Vibrating tube method

CCCCCC[n+]1ccn(C)c1.O=S(=O)([N-]S(=O)(=O)C(F)(F)F)C(F)(F)F + CCCCCCO
[1]
Settings | excess molar enthalpy [kcal/mol]
x2 = 0.0045 | 0.00956
x2 = 0.0089 | 0.0189
x2 = 0.0132 | 0.0282
x2 = 0.0176 | 0.037
x2 = 0.0219 | 0.0459
x2 = 0.0261 | 0.0545
x2 = 0.0304 | 0.0629
x2 = 0.0345 | 0.071
x2 = 0.0387 | 0.0791
x2 = 0.0428 | 0.0868
x2 = 0.0469 | 0.0946
x2 = 0.0509 | 0.102
x2 = 0.0549 | 0.109
x2 = 0.0589 | 0.117
x2 = 0.0629 | 0.124

CCn1cc[n+](C)c1.O=S(=O)([N-]S(=O)(=O)C(F)(F)F)C(F)(F)F + CCCCCCO
[1]
Settings | excess molar enthalpy [kcal/mol]
x2 = 0.0036 | 0.00621
x2 = 0.0072 | 0.0117
x2 = 0.0107 | 0.0165
x2 = 0.0142 | 0.0206
x2 = 0.0177 | 0.0239
x2 = 0.0212 | 0.0265
x2 = 0.0246 | 0.0287

CCCCCC[n+]1ccn(C)c1.O=S(=O)([N-]S(=O)(=O)C(F)(F)F)C(F)(F)F + CCCCO
[1]
Settings | excess molar enthalpy [kcal/mol]
x2 = 0.0064 | 0.0141
x2 = 0.0127 | 0.0277
x2 = 0.019 | 0.0411
x2 = 0.0252 | 0.0543
x2 = 0.0313 | 0.0672
x2 = 0.0373 | 0.0796
x2 = 0.0432 | 0.092
x2 = 0.0491 | 0.104
x2 = 0.0549 | 0.116
x2 = 0.0606 | 0.127
x2 = 0.0663 | 0.138
x2 = 0.0719 | 0.149
x2 = 0.0774 | 0.16
x2 = 0.0829 | 0.171
x2 = 0.0883 | 0.181

CCn1cc[n+](C)c1.O=S(=O)([N-]S(=O)(=O)C(F)(F)F)C(F)(F)F + CCCCO
[1]
Settings | excess molar enthalpy [kcal/mol]
x2 = 0.0051 | 0.0103
x2 = 0.0102 | 0.0203
x2 = 0.0152 | 0.0304
x2 = 0.0201 | 0.0399
x2 = 0.025 | 0.0495
x2 = 0.0299 | 0.0586
x2 = 0.0347 | 0.0676
x2 = 0.0395 | 0.0765
x2 = 0.0442 | 0.0851
x2 = 0.0488 | 0.0935
x2 = 0.0535 | 0.102
x2 = 0.0581 | 0.11
x2 = 0.0626 | 0.118
x2 = 0.0671 | 0.125
x2 = 0.0715 | 0.133

CCCCCC[n+]1ccn(C)c1.O=S(=O)([N-]S(=O)(=O)C(F)(F)F)C(F)(F)F + CCO
[1]
Settings | excess molar enthalpy [kcal/mol]
x2 = 0.0095 | 0.0195
x2 = 0.0189 | 0.0383
x2 = 0.0281 | 0.0564
x2 = 0.0371 | 0.0739
x2 = 0.046 | 0.0907
x2 = 0.0547 | 0.107
x2 = 0.0632 | 0.123
x2 = 0.0716 | 0.138
x2 = 0.0798 | 0.152
x2 = 0.0879 | 0.166
x2 = 0.0959 | 0.18
x2 = 0.1037 | 0.193
x2 = 0.1114 | 0.206
x2 = 0.1189 | 0.218
x2 = 0.1263 | 0.23

CCn1cc[n+](C)c1.O=S(=O)([N-]S(=O)(=O)C(F)(F)F)C(F)(F)F + CCO
[1]
Settings | excess molar enthalpy [kcal/mol]
x2 = 0.0083 | 0.0143
x2 = 0.0165 | 0.0282
x2 = 0.0245 | 0.0416
x2 = 0.0324 | 0.0545
x2 = 0.0402 | 0.0669
x2 = 0.0479 | 0.0791
x2 = 0.0554 | 0.0908
x2 = 0.0628 | 0.102
x2 = 0.0702 | 0.113
x2 = 0.0773 | 0.124
x2 = 0.0844 | 0.134
x2 = 0.0914 | 0.144
x2 = 0.0983 | 0.154
x2 = 0.105 | 0.163
x2 = 0.1117 | 0.172

CCCCCCCCCCn1cc[n+](C)c1.O=S(=O)([N-]S(=O)(=O)C(F)(F)F)C(F)(F)F + CO
Settings | excess molar enthalpy [kcal/mol] | mass density [kg/m3]
[1], x2 = 0.0171 | 0.0146 | –
[1], x2 = 0.0336 | 0.028 | –
[1], x2 = 0.0496 | 0.0402 | –
[1], x2 = 0.0651 | 0.0511 | –
[1], x2 = 0.08 | 0.0614 | –
[1], x2 = 0.0945 | 0.0705 | –
[1], x2 = 0.1086 | 0.0789 | –
[1], x2 = 0.1222 | 0.0863 | –
[1], x2 = 0.1354 | 0.0932 | –
[1], x2 = 0.1482 | 0.0994 | –
[1], x2 = 0.1606 | 0.105 | –
[1], x2 = 0.1727 | 0.11 | –
[1], x2 = 0.1844 | 0.115 | –
[1], x2 = 0.1958 | 0.119 | –
[1], x2 = 0.2069 | 0.123 | –
[2], x1 = 0.0001 | – | 789.6
[2], x1 = 0.0233 | – | 883.6
[2], x1 = 0.0513 | – | 963.28
[2], x1 = 0.1054 | – | 1054.89
[2], x1 = 0.1417 | – | 1094.51
[2], x1 = 0.1679 | – | 1115.13
[2], x1 = 0.2161 | – | 1147.23
[2], x1 = 0.2452 | – | 1163.25
[2], x1 = 0.297 | – | 1183.51
[2], x1 = 0.4686 | – | 1228.19
[2], x1 = 0.5186 | – | 1236.02
[2], x1 = 0.762 | – | 1263.65
[2], x1 = 0.7868 | – | 1264.97
[2], x1 = 0.8756 | – | 1271.49
[2], x1 = 0.9503 | – | 1275.73
[2], x1 = 1 | – | 1278.57
